# Results from ChEMBL document CHEMBL1134199, “Peptoids as endothelin receptor antagonists” (Bioorg Med Chem Lett, 2001).
# What was measured:
# [1] = molecular target: T1, Endothelin receptor type B (Sus scrofa, UniProt P35463); experiment: Ability to bind with Endothelin B receptor competitively in the presence of (125 I) endothelin using receptor binding assay.
# T1 sequence (P35463 whole entry): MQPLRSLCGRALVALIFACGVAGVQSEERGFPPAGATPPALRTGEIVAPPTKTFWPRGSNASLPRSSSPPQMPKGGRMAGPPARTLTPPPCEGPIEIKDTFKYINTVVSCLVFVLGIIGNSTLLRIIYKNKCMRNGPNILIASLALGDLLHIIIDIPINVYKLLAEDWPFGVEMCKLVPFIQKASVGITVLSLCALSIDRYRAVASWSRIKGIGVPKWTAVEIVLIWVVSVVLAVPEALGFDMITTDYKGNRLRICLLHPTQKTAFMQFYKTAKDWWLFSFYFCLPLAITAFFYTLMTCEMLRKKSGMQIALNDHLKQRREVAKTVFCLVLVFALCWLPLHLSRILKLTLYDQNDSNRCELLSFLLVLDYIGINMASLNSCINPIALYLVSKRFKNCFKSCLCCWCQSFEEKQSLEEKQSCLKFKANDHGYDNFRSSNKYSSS
# [2] = molecular target: T2, Endothelin-1 receptor (Sus scrofa, UniProt Q29010); experiment: Ability to bind with Endothelin A receptor competitively in the presence of (125 I) endothelin using receptor binding assay.
# T2 sequence (Q29010 whole entry): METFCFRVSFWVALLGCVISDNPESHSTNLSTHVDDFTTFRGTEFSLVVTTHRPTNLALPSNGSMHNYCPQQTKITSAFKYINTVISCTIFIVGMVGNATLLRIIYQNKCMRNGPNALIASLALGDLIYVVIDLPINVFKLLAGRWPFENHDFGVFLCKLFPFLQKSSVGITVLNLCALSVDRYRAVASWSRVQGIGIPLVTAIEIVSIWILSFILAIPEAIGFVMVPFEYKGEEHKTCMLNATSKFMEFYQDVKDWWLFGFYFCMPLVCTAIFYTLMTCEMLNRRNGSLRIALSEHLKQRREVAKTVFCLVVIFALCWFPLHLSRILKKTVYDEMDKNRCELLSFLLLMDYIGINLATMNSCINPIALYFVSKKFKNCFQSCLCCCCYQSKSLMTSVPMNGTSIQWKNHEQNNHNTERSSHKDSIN
SMILES,IC50 [1] [µM],IC50 [2] [µM]
O=C(O)C(Cc1c[nH]c2ccccc12)N(Cc1cc2c(cc1Cl)OCO2)Cc1cc2c(cc1Cl)OCO2 (stereo not given),6.7,16.3
CCOC(=O)CN(Cc1cc2c(cc1Cl)OCO2)C(Cc1ccc(O)cc1)C(=O)O (stereo not given),55,21.3
O=C(O)C(Cc1ccc(O)cc1)N(Cc1cc2c(cc1Cl)OCO2)C(=O)/C=C/c1ccc2c(c1)OCO2 (stereo not given),66,38
COc1ccc(CN(C(=O)/C=C/c2ccc3c(c2)OCO3)C(Cc2ccc(O)cc2)C(=O)O)cc1 (stereo not given),12.6,6
COc1ccc(CN(Cc2cc(OC)cc(OC)c2)C(Cc2ccc(O)cc2)C(=O)O)cc1 (stereo not given),,36
COc1ccc(CN(C(=O)/C=C/c2ccc3c(c2)OCO3)C(Cc2c[nH]c3ccccc23)C(=O)O)cc1 (stereo not given),0.47,10

# Second part, the compound after the results:
IC50 [1] [µM],IC50 [2] [µM],SMILES
> 100,> 100,COc1ccc(CN(C(=O)c2ccc(OC)cc2)C(Cc2c[nH]c3ccccc23)C(=O)O)cc1 (stereo not given)
,31,COc1cccc(CN(C(=O)/C=C/c2ccc3c(c2)OCO3)C(Cc2ccc(O)cc2)C(=O)O)c1 (stereo not given)
35,42,COc1ccc(CN(Cc2cc(OC)c(OC)c(OC)c2)C(Cc2c[nH]c3ccccc23)C(=O)O)cc1 (stereo not given)
49,30,COc1ccc(C(=O)N(Cc2cc3c(cc2Cl)OCO3)C(Cc2c[nH]c3ccccc23)C(=O)O)cc1 (stereo not given)
19,,COc1ccc(CC(C(=O)O)N(Cc2ccc(OC)cc2)Cc2cc(OC)c(OC)c(OC)c2)cc1 (stereo not given)
0.66,8.9,O=C(O)C(Cc1c[nH]c2ccccc12)N(Cc1cc2c(cc1Cl)OCO2)C(=O)/C=C/c1ccc2c(c1)OCO2 (stereo not given)
5.5,> 100,COc1ccc(CN(Cc2cc3c(cc2Cl)OCO3)C(Cc2ccc(O)cc2)C(=O)O)cc1 (stereo not given)
6.4,27,COc1ccc(CN(C(=O)/C=C/c2ccc3c(c2)OCO3)C(Cc2ccccc2)C(=O)O)cc1 (stereo not given)
